Data on eight compounds can be found in US6962921B2, “Dementia remedies containing 2-aryl-8-oxodihydropurine derivatives as the active ingredient” (Dainippon Pharmaceutical Co., Ltd., priority 2000, dated 2005).

The subject of data set [1] is MK-801-induced object location memory impairment. Nature of the data set: Ameliorating effect on the impairment of object location memory induced by MK-801 (object location memory test). It counts as in vivo, mice. The conditions noted are these: oral; for effective dose relative to the dose of FGIN-1-27: MK-801-induced object location memory impairment, mice; for MED (minimum effective dose), significant ameliorating effect on MK-801-induced object location memory impairment: Std-ddY male mice, 30 minutes before MK-801 0.05 mg/kg s.c., 5% significance level. The source says: Experiment 3: Ameliorating Effect on the Impairment of Object Location Memory Induced by MK-801.
The object location memory test is a test method using the property which animals like to search a novelty caused by the change of an object location. This method is often used in order to study the ability of object location memory. This method is closely related with hypofunction of glutamatergic system and cause the location memory impairment selectively without the impairment of object memory which is induced by hypofunction of cholinergic system.
This experiment was carried out according to the partially modified method of Sophie L. Dix, et al. [Behav. Brain Res., 99, 191-200 (1999)].
Std-ddY male mice weighing 25-30 g (six mice per one group) were used in the experiment. A solution of MK-801 in physiological saline (concentration: 0.005 mg/ml) was subcutaneously administered in a volume of 0.1 ml per 10 g of body weight, i.e., 0.05 mg/kg. For the test compound group, the test compound suspended in 0.5% tragacanth solution was orally administered in a volume of 0.1 ml per 10 g of body weight, 30 minutes before MK-801 administration, and for the amnesia control group and the vehicle control group, a 0.5% tragacanth solution was administered in the same manner as above. However, for the vehicle control group, physiological saline was administered instead of MK-801. Thirty minutes after the administration of MK-801, the first trial was carried out for 5 minutes, and 1 hour after the first trial, the second trial was carried out for 5 minutes. In the first trial, the two same-shaped objects [red frustum-formed funnel adaptors made of silicon (bottom diameter: 6.1 cm, ceiling diameter: 4.5 cm, height: 3.5 cm)] were respectively put in the center and one of the corners of the test box made of brown acrylic (length: 22.5 cm, width 24.5 cm, height: 11 cm), and the time which the mouse explored each object was measured. In the second trial, the object (displaced object: DO) which was located in the center in the first trial was displaced in the opposite corner to another object (non displaced object: NDO), and then the time which the mouse explored each object was measured. The difference in the exploration time of DO and NDO respectively between the first trial and the second trial was calculated, and the comparison between the vehicle control group and the amnesia control group, and between the amnesia control group and the test compound group was carried out.
In statistical analysis, the comparison between the vehicle control group and the amnesia control group was carried out by the Student's t test and it was confirmed whether a significant object location memory impairment was induced. The efficacy of the test compounds was evaluated by comparing the amnesia control group with the test compound group using the parametric Dunnett's multiple comparison test. The statistical calculation was carried out with SAS system Version 6.12 (SAS Institute Japan Ltd.).
Besides, in the vehicle control group, the exploration time for NDO in the second trial decreased and the exploration time for DO was obviously longer than that for NDO. […] On the other hand, in the amnesia control group with MK-801, both exploration time for NDO and DO decreased remarkably.

Data set [2] relates to scopolamine-induced spatial memory disorder. Nature of the data set: Ameliorating effect on spatial memory disorder induced by scopolamine (Y-maze, alternation behavior). The class given is in vivo. The conditions noted are these: Std-ddY male mice, oral, 1 hour before scopolamine 0.6 mg/kg s.c., 5% significance level. As for the experimental part: Experiment 1: Ameliorating Effect on Spatial Memory Disorder Induced by Scopolamine. The spatial memory test using Y-maze apparatus is a test to utilize the behavioral property of animals to enter into a new arm, avoiding the arm that they entered into just before (alternation behavior). This method is often used in order to study spatial working memory. This experiment was carried out according to the method of Itoh, J., et al. [Eur. J. Pharmacol., 236, 341-345 (1993)]. Std-ddY male mice weighing 25-30 g (8 mice per one group) were used in the experiment. A solution of scopolamine in physiological saline (concentration: 0.06 mg/ml) was subcutaneously administered to mice in a volume of 0.1 ml/10 g of body weight, i.e., 0.6 mg/kg. Mice in the test compound group were orally treated with the test compound suspended in 0.5% tragacanth solution in a volume of 0.1 ml/10 g of body weight 1 hour before scopolamine administration, while animals in the amnesia control group and the vehicle control group received a 0.5% tragacanth solution in the same manner as above. However, the vehicle control group was injected with physiological saline instead of scopolamine. Thirty minutes after administration of scopolamine, the mice were placed at the end of the arm A of the Y-maze apparatus which was composed of three black acrylic trapezoid arms (bottom width: 3 cm, height of side wall: 12 cm, width of opened ceiling: 10 cm, length: 40 cm), wherein said three arms were connected at the one end of each arm to form Y-shape and another ends were closed, and the three arms were differentiated by the names as A, B and C respectively, and allowed to search freely the maze for 8 minutes. When the mouse was checked to enter into an arm at the length of not less than 10 cm from the entrance of the arm, the name of the arm (A, B or C) was recorded. It could be defined as a correct choice when the mouse selected the different three arms sequentially, and the number of alternation behavior i.e., the number of correct choices was counted. In the case that the total number of arm entries was less than 10 [the maximum number of alternation behavior (the number obtained by subtracting 2 from the total number of arm entries) is less than 8], the resulting data were not used and the retest was carried out instead, because the ability of learning could not occasionally reflect the alternation behavior. For the final data gotten, the ratio of the number of the alternation behavior to that of the entries (obtained by subtracting 2 from the total number of arm entries) was estimated as the rate of alternation behavior. In statistical analysis, the rate of alternation behavior in the amnesia control group was compared with that in the vehicle control group by the nonparametric Wilcoxon rank sum test and it was checked if a significant amnesia was induced in the amnesia control group. Next, the efficacy of the test compounds was evaluated in comparison between the amnesia control group and the test compound group by the nonparametric Dunnett multiple comparison test. The statistical calculation was carried out with SAS system Version 6.12 (SAS Institute Japan Ltd.).

Data set [3] deals with scopolamine-induced object memory impairment. Nature of the data set: Ameliorating effect on object memory disorder induced by scopolamine (object recognition test). It counts as in vivo. The conditions noted are these: Std-ddY male mice, oral; for MED (minimum effective dose), significant difference in the discrimination index, scopolamine-induced object memory impairment: 30 minutes before scopolamine 0.4 mg/kg s.c., 5% significance level. As for the experimental part: Experiment 2: Ameliorating Effect on Object Memory Disorder Induced by Scopolamine. The object recognition test is a test method using the property which animals like to search a novel object. This method is often used in order to study the memorization and retention of episodic memory. This experiment was carried out according to the partially modified method of Bartolini, L. et al. [Pharmacol. Biochem. Behav., 53, 277-283 (1996)]. Std-ddY male mice weighing 25-30 g (six mice per one group) were used in the experiment. Scopolamine dissolved in physiological saline (concentration: 0.04 mg/ml) was subcutaneously administered to mice in a volume of 0.1 ml per 10 g of body weight, i.e., 0.4 mg/kg. For the test compound group, the test compound suspended in 0.5% tragacanth solution was orally administered in a volume of 0.1 ml per 10 g of body weight, 30 minutes before scopolamine administration, and for the amnesia control group and the vehicle control group, a 0.5% tragacanth solution was administered in the same manner as above. However, for the vehicle control group, physiological saline was administered instead of scopolamine. Thirty minutes after the administration of scopolamine, the first trial was carried out for 5 minutes, and 1 hour after the first trial, the second trial was carried out for 5 minutes. In the first trial, the two same-shaped objects [red frustum-formed funnel adaptors made of silicon (bottom diameter: 6.1 cm, ceiling diameter: 4.5 cm, height: 3.5 cm)] are put on the two adjacent corners of the test box made of brown acrylic (length: 22.5 cm, width: 24.5 cm, height: 11 cm), and the time that the mouse explored each object was measured. In the second trial, the object (familiar: F) which the exploration time was longer in the first trial was retained, while another object in the first trial was replaced by the novel object [novel: N, red diver ring (outside diameter: 7.5 cm, inside diameter: 2.5 cm, thickness: 2.0 cm)] at the same position, and then the time for exploring each object was measured. The rate of object memory impairment was obtained from the formula: (N−F)/(N+F) as a discrimination index, and the comparison between the vehicle control group and the amnesia control group, and between the amnesia control group and the test compound group was carried out on the basis of said discrimination index. In statistical analysis, the comparison between the vehicle control group and the amnesia control group was carried out by the Student's t test and it was checked whether a significant amnesia was induced. The efficacy of the test compounds was evaluated on the basis of comparison between the amnesia control group and the test compound group by the parametric Dunnett's multiple comparison test. […]

The subject of data set [4] is animal models of learning impairment. Conditions: active avoidance test, radial-arm maze test, water maze test; cited from earlier work.
The subject of another data set is Std-ddY male mice. Nature of the data set: Acute toxicity (Experiment 4). It counts as in vivo. Conditions: oral 2000 mg/kg, observed for 7 days. As for the experimental part: Experiment 4: Acute Toxicity
The experiment on the test compound C was carried out using Std-ddY male mice weighing 25-30 g (10 mice per each group).

Regarding `CCN(Cc1ccccc1)C(=O)Cn1c(=O)n(C)c2cnc(-c3ccccc3)nc21` [Test Compound E, N-benzyl-N-ethyl-7,8-dihydro-7-methyl-8-oxo-2-phenyl-9H-purin-9-acetamide], in data set [1], the “effective dose relative to the dose of FGIN-1-27” value was “less than 1/100” and the “MED (minimum effective dose), significant ameliorating effect on MK-801-induced object location memory impairment” value turned out to be 0.01 mg/kg. Also, the “MED (minimum effective dose), significant ameliorating effect on scopolamine-induced spatial memory disorder in the rate of alternation behavior” value in data set [2] was 1 mg/kg. Moreover, the “MED (minimum effective dose), significant difference in the discrimination index, scopolamine-induced object memory impairment” value in data set [3] is given as 0.1 mg/kg.
As to pregnenolone sulfate, the “ameliorating effects in animal models of learning impairment” value (from here on “ameliorating effects in animal models”) in data set [4] is “weak ameliorating effects”.
As for `CCN(Cc1ccccc1)C(=O)Cn1c(=O)n(C)c2nc(-c3ccccc3)ncc21` [Test Compound B, N-benzyl-N-ethyl-8,9-dihydro-9-methyl-8-oxo-2-phenyl-7H-purin-7-acetamide], the “MED (minimum effective dose), significant ameliorating effect on scopolamine-induced spatial memory disorder in the rate of alternation behavior” value in data set [2] was found to be 3 mg/kg.
Still for that read-out and setting: in the case of `COc1ccc(N(C)C(=O)Cn2c(=O)n(C)c3cnc(-c4ccccc4)nc32)cc1` [Test Compound A, N-(4-methoxyphenyl)-7,8-dihydro-7-methyl-N-methyl-8-oxo-2-phenyl-9H-purin-9-acetamide] it was 3 mg/kg.
As for `CCCCCCN(CCCCCC)C(=O)Cc1c(-c2ccc(F)cc2)[nH]c2ccccc12` [FGIN-1-27, N,N-di-n-hexyl-2-(4-fluorophenyl)indol-3-acetamide, reference compound], the “MED (minimum effective dose), significant ameliorating effect on MK-801-induced object location memory impairment” value in data set [1] turned out to be 10 mg/kg. In addition, the “MED (minimum effective dose), significant ameliorating effect on scopolamine-induced spatial memory disorder in the rate of alternation behavior” value in data set [2] came to 10 mg/kg. Besides, in data set [3], the “MED (minimum effective dose), significant difference in the discrimination index, scopolamine-induced object memory impairment” value is reported as greater than 30 mg/kg. In addition, in data set [3] (dose of 30 mg/kg), the “ameliorating effect on scopolamine-induced object memory impairment at a stated dose” value is on record as “no significant ameliorating effect”. Further, the “ameliorating effects in animal models” value in data set [4] is recorded as “weak ameliorating effects”.
Regarding `CCN(Cc1ccccc1)C(=O)Cn1c(=O)n(CC)c2cnc(-c3ccccc3)nc21` [Test Compound D, N-benzyl-7-ethyl-N-ethyl-7,8-dihydro-8-oxo-2-phenyl-9H-purin-9-acetamide], the “MED (minimum effective dose), significant ameliorating effect on scopolamine-induced spatial memory disorder in the rate of alternation behavior” value in data set [2] was determined as 3 mg/kg.
Regarding `CC(=O)[C@H]1CC[C@H]2[C@@H]3CC[C@H]4C[C@H](O)CC[C@]4(C)[C@H]3CC[C@]12C` [allopregnanolone], the “ameliorating effects in animal models” value in data set [4] is recorded as “weak ameliorating effects”.
As for `CCN(C(=O)Cn1c(=O)n(C)c2nc(-c3ccccc3)ncc21)c1ccccc1` [Test Compound C, N-ethyl-8,9-dihydro-9-methyl-8-oxo-2-phenyl-N-phenyl-7H-purin-7-acetamide], the lethality entry in the data set on Std-ddY male mice is recorded as “no mouse treated with the test compound C died”. Further, in data set [1], the “effective dose relative to the dose of FGIN-1-27” value is “less than 1/100” and the “MED (minimum effective dose), significant ameliorating effect on MK-801-induced object location memory impairment” value is 0.1 mg/kg. Also, the “MED (minimum effective dose), significant ameliorating effect on scopolamine-induced spatial memory disorder in the rate of alternation behavior” value in data set [2] was determined as 0.01 mg/kg. For the same compound, the “MED (minimum effective dose), significant difference in the discrimination index, scopolamine-induced object memory impairment” value in data set [3] is recorded as 0.01 mg/kg.
